Legend:
Test in all cases: relative viability (nuclei count vs DMSO), 5 days (fraction); higher = more cells survive
CUDC-101 + Olaparib = compound: C#Cc1cccc(Nc2ncnc3cc(OC)c(OCCCCCCC(=O)NO)cc23)c1 [CUDC-101] + O=C(c1cc(Cc2n[nH]c(=O)c3ccccc23)ccc1F)N1CCN(C(=O)C2CC2)CC1 [Olaparib] (partner 8 µM)
In short: (§1)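 After 5 days of treatment, lung cancer cells in 1536-well plates were fixed and stained in a single step (final 0.05% Triton X-100, 1% formaldehyde, 1 ug/ml Hoechst) and their nuclei counted on 4× images. Treatment had been applied by pin tool the day after seeding as one drug alone or as a fixed anchor-drug dose with five library-drug doses (not always all listed) in √10 steps. Relative viability is the nuclei count of treated wells divided by that of vehicle wells, and values are medians of duplicate plates.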

NVP-TAE684 + Navitoclax = compound: COc1cc(N2CCC(N3CCN(C)CC3)CC2)ccc1Nc1ncc(Cl)c(Nc2ccccc2S(=O)(=O)C(C)C)n1 [NVP-TAE684] + CC1(C)CCC(c2ccc(Cl)cc2)=C(CN2CCN(c3ccc(C(=O)NS(=O)(=O)c4ccc(N[C@H](CCN5CCOCC5)CSc5ccccc5)c(S(=O)(=O)C(F)(F)F)c4)cc3)CC2)C1 [Navitoclax] (partner 0.5 µM)
In short: as §1

CUDC-101 + OSI-027 = compound: C#Cc1cccc(Nc2ncnc3cc(OC)c(OCCCCCCC(=O)NO)cc23)c1 [CUDC-101] + COc1cccc2cc(-c3nc([C@H]4CC[C@H](C(=O)O)CC4)n4ncnc(N)c34)[nH]c12 [OSI-027] (partner 0.5 µM)
In short: as §1

NVP-TAE684 + Vorinostat = compound: COc1cc(N2CCC(N3CCN(C)CC3)CC2)ccc1Nc1ncc(Cl)c(Nc2ccccc2S(=O)(=O)C(C)C)n1 [NVP-TAE684] + O=C(CCCCCCC(=O)Nc1ccccc1)NO [Vorinostat] (partner 1 µM)
In short: as §1

## UMC-11
CUDC-101 + Olaparib; first compound 0.01 µM
  relative viability: 0.29
CUDC-101 + Olaparib; first compound 0.03162 µM
  relative viability: 0.707
CUDC-101 + Olaparib; first compound 0.1 µM
  relative viability: 0.377
CUDC-101 + Olaparib; first compound 0.3162 µM
  relative viability: 0.237
CUDC-101 + Olaparib; first compound 1 µM
  relative viability: 0.119
NVP-TAE684 + Navitoclax; first compound 0.2 µM
  relative viability: 0.331
NVP-TAE684 + Navitoclax; first compound 0.6325 µM
  relative viability: 0.289
NVP-TAE684 + Navitoclax; first compound 2 µM
  relative viability: 0.162
CUDC-101 + OSI-027; first compound 0.01 µM
  relative viability: 0.505
CUDC-101 + OSI-027; first compound 0.03162 µM
  relative viability: 0.521
CUDC-101 + OSI-027; first compound 0.1 µM
  relative viability: 0.426
CUDC-101 + OSI-027; first compound 0.3162 µM
  relative viability: 0.172
CUDC-101 + OSI-027; first compound 1 µM
  relative viability: 0.105
NVP-TAE684 + Vorinostat; first compound 0.2 µM
  relative viability: 0.385
NVP-TAE684 + Vorinostat; first compound 0.6325 µM
  relative viability: 0.336
NVP-TAE684 + Vorinostat; first compound 2 µM
  relative viability: 0.186

From the supplement of paper PMC10307832
